System: syngeneic C57BL/6 mice
Test: Syngeneic mouse model of endometriosis: mechanical allodynia by von Frey pain stimulation procedure
Format: in vivo
Conditions: 30 mg/kg i.p., day 4 and 5, measured one hour following treatment; p<0.05; FIG. 1A
Method: A P2X3 receptor antagonist compound of Formula (I) described herein was evaluated in the syngeneic mouse model of endometriosis.
C57BL/6 mice (8 weeks old) were anesthetized before making a vertical incision on the abdomen. The uterus was collected and divided into pieces of 5 millimeters which were then surgically sutured onto the peritoneum of syngeneic recipient animals. The recipient mice were also treated with oestradiol and the resulting lesions were allowed to develop for 11 weeks.
Baseline measurements were established on Day 0 by measuring mechanical allodynia in all transplanted mice using a von Frey pain stimulation procedure in accordance with the protocol described below. On Day 1 transplanted mice were injected with saline (i.p.) and mechanical allodynia was again measured using the von Frey filament method (control). […] Mechanical allodynia was evaluated using the von Frey pain stimulation procedure. […] The mice were euthanized on Day 6 and evaluated for the presence of endometriotic lesions.
Animals were placed in small cages with a mesh or otherwise penetrable bottom. The pain threshold was evaluated with von Frey filaments using the simplified up-down method, which determines the mechanical force required to elicit a positive pain response in animals. […]

CNC(=O)c1cc(F)c(-c2nc3cc(C)ccn3c2C[C@H]2CN(C(=O)OC)CCO2)c(F)c1 [Compound 1]
stimulus threshold (von Frey test; pressure stimulus required to elicit behavioral response, change from baseline Day 0): greater stimulus threshold
